Experiments:
rat liver mitochondria = test: Accumulation of Compound 9 in isolated mitochondria (ion selective electrode); type: in vitro ADME
Procedure: Liver mitochondria were prepared from female Wistar rats by homogenisation followed by differential centrifugation in medium containing 250 mM sucrose, 10 mM Tris-HCL (pH 7.4) and 1 mM EGTA (Chappell, J. B. and Hansford, R. G., In: Subcellular components: preparation and fractionation (Ed. Birnie G D), pp. 77-91. Butterworths, London, 1972, which is incorporated herein by reference.)
An ion selective electrode for compound 9 was prepared by standard procedures (Kamo, N., et al., Journal of Membrane Biology, 49, 105-121 (1979) and Davey, G. P., et al., Biochemical Journal, 288, 439-443 (1992), which are incorporated herein by reference), and activated by soaking in 100 μM compound 9 for 1-3 days. The electrodes were then inserted into an air-tight chamber of an oxygen electrode enabling simultaneous measurement of oxygen consumption and compound 9, as shown in FIG. 1.
The rat liver mitochondria (2 mg protein/ml) were suspended in KCl medium (120 mM KCl, 10 mM HEPES, pH 7.2, 1 mM EGTA) with additions of rotenone (5 μg/ml) and nigericin (0.6 nM) in a stirred 3 ml system at 30° C. Compound 9 was titrated in 1 μM increments (from 650 to 730s on FIG. 1) and the response of the electrode measured over 0-5 μM of Compound 9. This response was logarithmic with respect to the concentration of Compound 9.
To energise the mitochondria, the respiratory substrate succinate (5 mM) was added (at 800s on FIG. 1). These conditions are known to generate a mitochondrial membrane potential of about 180 mV (Burns, et al., Arch Biochem Biophys, 332,60-68 (1995); Burns and Murphy, Arch Biochem Biophys, 339, 33-39 (1997), which are incorporated herein by reference).

superoxide = test: Standard assay for superoxide dismutase activity (xanthine oxidase/hypoxanthine, acetylated cytochrome c reduction, A550); type: biochemical
Procedure: To see if Compound 9 is catalytically active as a superoxide dismutase mimetic, a standard assay for superoxide dismutase activity was used (Boveris, A., Methods Enzymol., 105, 429-435 (1984), which is incorporated herein by reference).
The incubation conditions were 50 mM KPi, pH 7.5; 1 mM EGTA; 100 μM DTPA (N,N-bis(2-bis[carboxymethyl]amino)ethyl) glycine) at 30° C. to which was added 0.1 unit/ml xanthine oxidase and acetylated cytochrome c (50 μM). After incubation for 2 min, the background rate was measured for 1 min then hypoxanthine (100 μM) was added to initiate superoxide formation (point X in FIG. 2), which provides a continual flux. The rate of superoxide formation is measured by the rate at which the superoxide reduced cytochrome c(III) to cytochrome c(II), which leads to an increase in light absorption at 550 nm (A550). SOD activity causes the superoxide to be converted to hydrogen peroxide thereby decreasing the rate of reduction of cytochrome c (III). In FIG. 2, the initial rate of reduction of cytochrome c (III) can be seen (line A) and on addition of compound 9 (250 nM) this rate of cytochrome c reduction was decreased due to consumption of the superoxide by compound 9 (line B).
The above experiments were repeated using various concentrations of Compound 9 and the native superoxide dismutase (Cu, Zn SOD) in order to compare their activity.

xanthine oxidase = test: Control experiments for inhibition of xanthine oxidase; type: biochemical
Chain of xanthine oxidase (P47989 whole entry, species assumed): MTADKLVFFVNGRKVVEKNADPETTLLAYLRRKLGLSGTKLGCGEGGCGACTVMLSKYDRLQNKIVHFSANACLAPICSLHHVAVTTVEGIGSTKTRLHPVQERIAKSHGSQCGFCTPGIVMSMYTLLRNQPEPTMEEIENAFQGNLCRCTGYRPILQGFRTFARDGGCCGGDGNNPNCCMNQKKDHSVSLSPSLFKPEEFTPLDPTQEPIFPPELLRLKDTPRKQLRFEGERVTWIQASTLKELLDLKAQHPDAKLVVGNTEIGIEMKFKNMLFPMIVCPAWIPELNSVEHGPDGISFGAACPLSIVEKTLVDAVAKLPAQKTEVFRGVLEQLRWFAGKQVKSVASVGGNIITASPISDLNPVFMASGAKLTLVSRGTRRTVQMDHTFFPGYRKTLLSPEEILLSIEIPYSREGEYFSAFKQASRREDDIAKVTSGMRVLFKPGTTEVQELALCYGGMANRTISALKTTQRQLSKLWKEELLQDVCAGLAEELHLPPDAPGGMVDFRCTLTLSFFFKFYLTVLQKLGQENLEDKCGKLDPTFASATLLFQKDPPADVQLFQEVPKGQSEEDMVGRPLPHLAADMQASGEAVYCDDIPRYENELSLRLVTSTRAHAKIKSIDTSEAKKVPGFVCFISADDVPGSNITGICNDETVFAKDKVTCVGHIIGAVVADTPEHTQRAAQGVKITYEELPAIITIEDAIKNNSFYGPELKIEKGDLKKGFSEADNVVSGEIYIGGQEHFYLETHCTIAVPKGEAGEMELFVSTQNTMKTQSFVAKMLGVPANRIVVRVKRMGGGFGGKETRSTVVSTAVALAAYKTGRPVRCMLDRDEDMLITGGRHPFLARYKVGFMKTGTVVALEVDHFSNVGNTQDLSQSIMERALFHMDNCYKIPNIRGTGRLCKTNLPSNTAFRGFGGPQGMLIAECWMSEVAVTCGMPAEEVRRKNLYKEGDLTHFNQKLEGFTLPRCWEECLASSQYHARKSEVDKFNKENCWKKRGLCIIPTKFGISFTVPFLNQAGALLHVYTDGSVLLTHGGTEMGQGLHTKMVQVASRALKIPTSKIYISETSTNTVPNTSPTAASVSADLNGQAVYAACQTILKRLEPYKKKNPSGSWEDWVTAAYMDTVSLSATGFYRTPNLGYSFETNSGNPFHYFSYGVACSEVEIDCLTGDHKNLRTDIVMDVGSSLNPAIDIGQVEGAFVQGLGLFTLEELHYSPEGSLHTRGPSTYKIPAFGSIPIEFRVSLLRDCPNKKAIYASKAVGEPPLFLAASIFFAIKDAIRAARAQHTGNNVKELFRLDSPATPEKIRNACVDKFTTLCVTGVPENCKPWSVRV

concentration of the compound within mitochondria (rat liver mitochondria; energised (succinate 5 mM) rat liver mitochondria 2 mg protein/ml, KCl medium pH 7.2, 30° C., 0-5 μM compound): about 1.25 nmol/mg protein
accumulation by energised mitochondria (rat liver mitochondria; energised rat liver mitochondria, membrane potential about 180 mV): ~500 fold
concentration of compound outside the mitochondria after energising with succinate (rat liver mitochondria; succinate 5 mM added, FIG. 1): falls rapidly
rate of cytochrome c reduction (superoxide; compound 9 at 250 nM, FIG. 2 line B versus control line A): decreased
SOD activity of 1 nmol compound expressed as activity of the native enzyme CuZnSOD (superoxide; per 1 nmol Compound 9, various concentrations, FIG. 3): about 1 unit
inhibition of the activity of xanthine oxidase (xanthine oxidase): does not inhibit
Compound: [Cl-].[Cl-].[Cl-].[Mn+2].c1ccc([P+](CCCSc2cc3nc(c2)CNC2CCCCC2NCCNC2CCCCC2NC3)(c2ccccc2)c2ccccc2)cc1 [Compound 9, Manganese(II) dichloro((4R, 9R, 14R, 19R)-24-(3-triphenylphosphoniopropane-1-thio)-3, 10, 13, 20, 26-pentaazatetracyclo[20.3.1.0.^4,9.0^14,19]hexacosa-1 (26),-22(23),24-triene) chloride]
time for reversal of accumulation on addition of the uncoupler FCCP (rat liver mitochondria; FCCP 332 nM added to dissipate the membrane potential): < 10 s

Source: US6984636B2, “Mitochondrially targeted antioxidants” (Medical Research Council, priority 2002, dated 2006)
